Measurements taken from patent publication US9708314B2, “Heterocyclic amide compound” (NISSAN CHEMICAL INDUSTRIES, LTD., priority 2013, dated 2017).

How the values were obtained:
Format in all cases: in vivo
[1] = system: Echinochloa oryzacola Vasing.; experiment: Test Example 1: herbicidal activity, application before weed generation in submerged conditions; settings: Application herbicide amount 320 g/ha; Seventeenth Table
Outline: (§1)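 Water-diluted emulsion formulation is applied onto flood water (4 cm deep) covering alluvial soil on the day weed seeds are sown, after transplanting 2.5 leaf stage rice. Rates are expressed per hectare. Injury or control is graded 0–5 three weeks later.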

Scirpus juncoides = experiment: as above; settings: Application herbicide amount 320 g/ha; Seventeenth Table
Outline: as §1

Monochoria vaginalis = experiment: as above; settings: Application herbicide amount 320 g/ha; Seventeenth Table
Outline: as §1

Lolium multiflorum Lam. = experiment: Test Example 4: herbicidal effect by application to foliage (diluvial soil, plastic box); settings: Application herbicide amount 320 g/ha; foliage application
Outline: (§2)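 Greenhouse plants (25° C. to 30° C., 14 d, diluvial soil) receive a foliar spray of water-diluted emulsifiable formulation at defined g/ha. Grading after 3 weeks uses a six-step herbicidal-ratio scale, with 4 covering 70% to <90% and 1 covering 5% to <20%.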

Veronica persica = experiment: as above; settings: Application herbicide amount 320 g/ha; foliage application
Outline: as §2

Abutilon theophrasti = experiment: as above; settings: Application herbicide amount 320 g/ha; foliage application
Outline: as §2

Galium spurium = experiment: as above; settings: Application herbicide amount 320 g/ha; foliage application
Outline: as §2

[2] = system: Echinochloa crus-galli var. crus-galli; experiment: as above; settings: Application herbicide amount 320 g/ha; foliage application
Outline: as §2

Amaranthus retroflexus = experiment: as above; settings: Application herbicide amount 320 g/ha; foliage application
Outline: as §2

Setaria viridis = experiment: as above; settings: Application herbicide amount 320 g/ha; foliage application
Outline: as §2

Stellaria media = experiment: as above; settings: Application herbicide amount 320 g/ha; foliage application
Outline: as §2

Chenopodium album = experiment: as above; settings: Application herbicide amount 320 g/ha; foliage application
Outline: as §2

Avena fatua = experiment: as above; settings: Application herbicide amount 320 g/ha; foliage application
Outline: as §2

Apera spica-venti. = experiment: as above; settings: Application herbicide amount 320 g/ha; foliage application
Outline: as §2

Digitaria ciliaris = experiment: as above; settings: Application herbicide amount 320 g/ha; foliage application
Outline: as §2

Alopecurus myosuroides = experiment: as above; settings: Application herbicide amount 320 g/ha; foliage application
Outline: as §2

Triticum aestivum = experiment: Test Example 4: effect on crop by application to foliage (diluvial soil, plastic box); settings: Application herbicide amount 320 g/ha; foliage application
Outline: as §2

Brassica campestris L. = experiment: as above; settings: Application herbicide amount 320 g/ha; foliage application
Outline: as §2

Glycine max = experiment: as above; settings: Application herbicide amount 320 g/ha; foliage application
Outline: as §2

[3] = system: Beta vulgaris ssp. vulgaris; experiment: as above; settings: Application herbicide amount 320 g/ha; foliage application
Outline: as §2

Zea mays = experiment: as above; settings: Application herbicide amount 320 g/ha; foliage application
Outline: as §2

[4] = system: transplanted Oryza sativa; experiment: Test Example 1: effect on crop, application before weed generation in submerged conditions; settings: Application herbicide amount 320 g/ha; Seventeenth Table
Outline: as §1

Compound	A: Echinochloa oryzicola Vasing. (herbicidal effect grade) [1]	B: Scirpus juncoides (herbicidal effect grade) (Scirpus juncoides)	C: Monochoria vaginalis (herbicidal effect grade) (Monochoria vaginalis)	K (Lolium multiflorum Lam.) herbicidal effect grade (Lolium multiflorum Lam.)	R (Veronica persica) herbicidal effect grade (Veronica persica)	M (Abutilon theophrasti) herbicidal effect grade (Abutilon theophrasti)	Q (Galium spurium) herbicidal effect grade (Galium spurium)	H (Echinochloa crus-galli var. crus-galli) herbicidal effect grade [2]	N (Amaranthus retroflexus) herbicidal effect grade (Amaranthus retroflexus)	G (Setaria viridis) herbicidal effect grade (Setaria viridis)	P (Stellaria media) herbicidal effect grade (Stellaria media)	O (Chenopodium album) herbicidal effect grade (Chenopodium album)	I (Avena fatua) herbicidal effect grade (Avena fatua)	L (Apera spica-venti.) herbicidal effect grade (Apera spica-venti.)	F (Digitaria ciliaris) herbicidal effect grade (Digitaria ciliaris)	J (Alopecurus myosuroides) herbicidal effect grade (Alopecurus myosuroides)	e (Triticum aestivum) effect on crop grade (Triticum aestivum)	g (Brassica campestris L.) effect on crop grade (Brassica campestris L.)	d (Glycine max) effect on crop grade (Glycine max)	f (Beta vulgaris ssp. vulgaris) effect on crop grade [3]	further results
CCN(CC)c1nnc2c(C(=O)Nc3nnc(C)o3)ccc(C(F)(F)F)n12 [1-135]	3 (Herbicidal ratio of 40% or more and less than 70%)	4 (Herbicidal ratio of 70% or more and less than 90%)	4 (Herbicidal ratio of 70% or more and less than 90%)	1 (Herbicidal ratio of 5% or more and less than 20%)	1 (Herbicidal ratio of 5% or more and less than 20%)	3 (Herbicidal ratio of 40% or more and less than 70%)	0 (Herbicidal ratio of 5% or less (almost no effect))	4 (Herbicidal ratio of 70% or more and less than 90%)	3 (Herbicidal ratio of 40% or more and less than 70%)	3 (Herbicidal ratio of 40% or more and less than 70%)	4 (Herbicidal ratio of 70% or more and less than 90%)	5 (Herbicidal ratio of 90% or more (almost completely withered))	1 (Herbicidal ratio of 5% or more and less than 20%)	1 (Herbicidal ratio of 5% or more and less than 20%)	4 (Herbicidal ratio of 70% or more and less than 90%)	1 (Herbicidal ratio of 5% or more and less than 20%)	0 (Herbicidal ratio of 5% or less (almost no effect))	0 (Herbicidal ratio of 5% or less (almost no effect))	3 (Herbicidal ratio of 40% or more and less than 70%)	4 (Herbicidal ratio of 70% or more and less than 90%)	c (Zea mays) effect on crop grade (Zea mays): 0 (Herbicidal ratio of 5% or less (almost no effect)); a: transplanted Oryza sativa (effect on crop grade) [4]: 1 (Herbicidal ratio of 5% or more and less than 20%)
Cc1nnc(NC(=O)c2ccc(C(F)(F)F)n3c(N4CCCC4)nnc23)o1 [1-136]	5 (Herbicidal ratio of 90% or more (almost completely withered))	3 (Herbicidal ratio of 40% or more and less than 70%)	3 (Herbicidal ratio of 40% or more and less than 70%)	0 (Herbicidal ratio of 5% or less (almost no effect))	3 (Herbicidal ratio of 40% or more and less than 70%)	3 (Herbicidal ratio of 40% or more and less than 70%)	0 (Herbicidal ratio of 5% or less (almost no effect))	4 (Herbicidal ratio of 70% or more and less than 90%)	2 (Herbicidal ratio of 20% or more and less than 40%)	2 (Herbicidal ratio of 20% or more and less than 40%)	4 (Herbicidal ratio of 70% or more and less than 90%)	5 (Herbicidal ratio of 90% or more (almost completely withered))	0 (Herbicidal ratio of 5% or less (almost no effect))	1 (Herbicidal ratio of 5% or more and less than 20%)	4 (Herbicidal ratio of 70% or more and less than 90%)	0 (Herbicidal ratio of 5% or less (almost no effect))	0 (Herbicidal ratio of 5% or less (almost no effect))	0 (Herbicidal ratio of 5% or less (almost no effect))	3 (Herbicidal ratio of 40% or more and less than 70%)	4 (Herbicidal ratio of 70% or more and less than 90%)	c (Zea mays) effect on crop grade (Zea mays): 1 (Herbicidal ratio of 5% or more and less than 20%); a: transplanted Oryza sativa (effect on crop grade) [4]: 1 (Herbicidal ratio of 5% or more and less than 20%)
